Test results published in US20240009191A1, “METHOD AND COMPOSITION FOR THE TREATMENT OF DISEASE” (DIMERIX BIOSCIENCE PTY LTD, priority 2019, published 2024).
Entries after “also recorded” stand apart in the source; their conditions may differ.

Assays:
CXCR2 = target: T1, CXCR2 (Homo sapiens, UniProt P25025); assay: BRET trafficking of CXCR2/Rluc8 to Venus/Kras or Venus/Rab markers, absence of AT1R; type: cell-based; details: 100 nM CXCL8, 1 μM AngII
T1 sequence (P25025 1-360): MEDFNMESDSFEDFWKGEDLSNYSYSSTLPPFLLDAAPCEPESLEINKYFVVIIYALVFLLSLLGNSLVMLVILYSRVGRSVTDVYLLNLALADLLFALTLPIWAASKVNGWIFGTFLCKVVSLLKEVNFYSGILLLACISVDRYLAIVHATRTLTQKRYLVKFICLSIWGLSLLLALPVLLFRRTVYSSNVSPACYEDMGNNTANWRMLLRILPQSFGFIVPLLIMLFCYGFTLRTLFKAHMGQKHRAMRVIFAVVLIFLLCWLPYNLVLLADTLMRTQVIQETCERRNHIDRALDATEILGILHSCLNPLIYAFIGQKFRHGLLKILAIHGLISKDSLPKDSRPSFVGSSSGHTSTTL
Protocol: (§1) HEK293FT cells were seeded in 6-well plates at a density of approximately 700,000 cells/well and maintained at 37° C., 5% CO2 in Complete Media (DMEM containing 0.3 mg/ml glutamine, 100 IU/ml penicillin and 100 μg/ml streptomycin (Gibco/Thermo Fisher)) supplemented with 10% fetal calf serum (FCS; Bovogen). Transient transfections were carried out 24 h after seeding using FuGene6™ (Promega) according to manufacturer instructions. 24 h post-transfection, cells were washed with PBS, detached using 0.05% trypsin/0.53 mM EDTA, resuspended in HEPES-buffered phenol red free Complete Media containing 5% FCS and added to a poly-L-lysine-coated white 96-well microplate (Greiner Bio-One). 48 h post-transfection, bioluminescence resonance energy transfer (BRET) assays were carried out following pre-incubation of cells with EnduRen™ (Promega) at a final concentration of 30 μM, at 37° C., 5% CO2 for 2 h. BRET measurements were taken at 37° C. using the LUMlstar™ or CLARIOstar™ (BMG Labtech). Filtered light emissions were measured for 1 s in each of the ‘donor wavelength window’ (460-490 nm for LUMlstar™ or 410-490 nm for CLARIOstar™) and ‘acceptor wavelength window’ (520-550 nm for LUMlstar™ or 520-620 nm for CLARIOstar™).
(§2) The BRET signal observed between interacting proteins is normalized by subtracting the background BRET ratio. This can be done in one of two ways (see Pfleger et al. (2006) Cell Signal 18:1664-1670; Pfleger et al. (2006) Nat Protoc 1:336-344): 1) the ratio of the 520-550 nm or 520-620 nm emission over the 460-490 nm or 410-490 nm emission for a cell sample containing only the donor construct is subtracted from the same ratio for a sample containing the interacting acceptor and donor fusion proteins; 2) the ratio of the 520-550 nm or 520-620 nm emission over the 460-490 nm or 410-490 nm emission for a cell sample treated with vehicle is subtracted from the same ratio for a second aliquot of the same cell sample treated with ligand. In the following examples, the second calculation will be used and the signal is described as ligand-induced BRET′. Furthermore, for data shown in FIGS. 4 to 20, all data points in a given set are corrected relative to the final data point prior to agonist treatment, which is fixed to zero. In keys on FIGS. 7 to 20, “>” means “followed by after 50 minutes”, with agonists added at time zero on the x-axes.
(§3) Referring now to FIG. 3 (published in Tiulpakov et al (2016) Mol. Endocrinol. 30, 889-904), the proximity of Rluc8-tagged receptors to Venus-tagged Kras plasma membrane marker, or Venus-tagged Rabs specific for distinct subcellular locations, is monitored in live cells and in real-time using BRET. The Rab markers are: Venus/Rab5 (5) for early endosomes; Venus/Rab4 (4) for early endosome recycling; Venus/Rab11a (11) for recycling endosomes; Venus/Rab7 (7) for late endosomes/lysosomes; Venus/Rab9 (9) for late endosome trafficking to the trans-Golgi network; Venus/Rab1 (1) for endoplasmic reticulum trafficking to the cis-Golgi; Venus/Rab6 (6) for Golgi apparatus and trans-Golgi network; or Venus/Rab8 (8) for trans-Golgi network to plasma membrane.

AT1R-CXCR2 heteromer = target: T2, AT1R-CXCR2 heteromer (Homo sapiens, UniProt P25025+P30556); assay: BRET trafficking of AT1R/Rluc8 to Venus/Kras or Venus/Rab markers, presence of unlabelled CXCR2; type: cell-based
T2 sequence (P30556 1-359): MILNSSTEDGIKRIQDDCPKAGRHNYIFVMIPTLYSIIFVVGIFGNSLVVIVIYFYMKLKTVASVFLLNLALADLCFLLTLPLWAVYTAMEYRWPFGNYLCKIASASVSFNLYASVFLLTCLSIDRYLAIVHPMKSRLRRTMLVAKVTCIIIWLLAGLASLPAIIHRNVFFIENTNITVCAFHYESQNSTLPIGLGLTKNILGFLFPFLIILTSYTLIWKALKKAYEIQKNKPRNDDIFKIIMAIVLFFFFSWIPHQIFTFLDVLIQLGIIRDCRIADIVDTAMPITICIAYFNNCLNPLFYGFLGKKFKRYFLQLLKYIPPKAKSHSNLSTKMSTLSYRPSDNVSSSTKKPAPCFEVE
T2 sequence (P25025 1-360): T1 sequence (P25025 1-360)
Protocol: as §1, §2
The Receptor-Heteromer Investigation Technology (Receptor-HIT) is an assay configuration that provides insights into receptor complexes (Ayoub et al. (2015) PLoS One 10(3):e0119803). It is also known as GPCR-HIT when assessing GPCRs. It is an assay configuration whereby one receptor (eg. CXCR2) is labelled with one component (eg. Renilla luciferase variant Rluc8) of a proximity-based reporter system (eg. BRET), the complementary component of which (eg. Venus yellow fluorescent protein) is fused to a receptor interacting partner (eg. mGsi).
as §3

Angiotensin II [AngII]
proximity of CXCR2/Rluc8 to Venus/Rab6 (BRET) (CXCR2; Golgi apparatus to trans-Golgi network, FIG. 4I): no effect | proximity of CXCR2/Rluc8 to Venus/Rab4 (BRET) (CXCR2; early endosome recycling, FIG. 4E): no effect | proximity of CXCR2/Rluc8 to Venus/Rab5 (BRET) (CXCR2; early endosomes, FIG. 4G): no effect | proximity of CXCR2/Rluc8 to Venus/Rab1 (BRET) (CXCR2; endoplasmic reticulum to cis-Golgi, FIG. 4C): no effect | proximity of CXCR2/Rluc8 to Venus/Rab9 (BRET) (CXCR2; late endosome to trans-Golgi network, FIG. 4O): no effect | proximity of CXCR2/Rluc8 to Venus/Rab7 (BRET) (CXCR2; late endosomes/lysosomes, FIG. 4K): no effect | proximity of CXCR2/Rluc8 to Venus/Kras (BRET) (CXCR2; plasma membrane marker, FIG. 4A): no effect | proximity of CXCR2/Rluc8 to Venus/Rab11a (BRET) (CXCR2; recycling endosomes, FIG. 4Q): no effect | proximity of CXCR2/Rluc8 to Venus/Rab8 (BRET) (CXCR2; trans-Golgi network to plasma membrane, FIG. 4M): no effect | proximity of AT1R/Rluc8 to Venus/Kras (BRET) (AT1R-CXCR2 heteromer): marked reduction; also recorded: does not result in a notable increase | proximity of AT1R/Rluc8 to Venus/Rab1 (BRET) (AT1R-CXCR2 heteromer): increase | proximity of AT1R/Rluc8 to Venus/Rab4 (BRET) (AT1R-CXCR2 heteromer): increase | proximity of AT1R/Rluc8 to Venus/Rab5 (BRET) (AT1R-CXCR2 heteromer): substantial increase | proximity of AT1R/Rluc8 to Venus/Rab7 (BRET) (AT1R-CXCR2 heteromer): increase | proximity of AT1R/Rluc8 to Venus/Rab8 (BRET) (AT1R-CXCR2 heteromer): less of an effect | proximity of AT1R/Rluc8 to Venus/Rab9 (BRET) (AT1R-CXCR2 heteromer): increase | proximity of AT1R/Rluc8 to Venus/Rab11a (BRET) (AT1R-CXCR2 heteromer): substantial increase
